Results from article PMC10614203, “Synthesis, Structure–Activity Relationships, Radiofluorination, and Biological Evaluation of [^18F]RM365, a Novel Radioligand for Imaging the Human Cannabinoid Receptor Type 2 (CB2R) in the Brain with PET” (Journal of Medicinal Chemistry, 2023).

Tests used:
rat CB2R = biological target: T1, rat CB2R (Rattus norvegicus, UniProt Q9QZN9); test: Homologous competition binding of [18F]RM365 / RM365 on rat spleen homogenate
T1 construct: one spleen from a female SPRD rat expressing high levels of the receptor in the leukocytes; from tissue; host or cells: rat spleen (female SPRD rat; autoradiography also described with male F433 rats)
T1 sequence (Q9QZN9 1-360): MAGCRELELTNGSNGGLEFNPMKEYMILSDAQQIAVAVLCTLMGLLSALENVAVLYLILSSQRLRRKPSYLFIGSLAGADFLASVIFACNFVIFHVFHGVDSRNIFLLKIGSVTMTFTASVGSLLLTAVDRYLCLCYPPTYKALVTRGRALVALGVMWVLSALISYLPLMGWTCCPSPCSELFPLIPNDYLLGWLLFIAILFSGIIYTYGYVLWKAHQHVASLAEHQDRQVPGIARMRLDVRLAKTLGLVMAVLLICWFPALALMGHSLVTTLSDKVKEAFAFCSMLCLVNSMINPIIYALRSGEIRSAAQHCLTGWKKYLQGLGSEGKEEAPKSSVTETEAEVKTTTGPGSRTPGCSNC
Source text: To complement the indirect determination of the affinity of RM365 toward the CB2R in vitro, we performed a direct binding study with the radiofluorinated ligand using preparations of CHO cells stably transfected with the cloned human receptor and one spleen from a female SPRD rat expressing high levels of the receptor in the leukocytes.[12] The results of the homologous competition study shown in Figure 6 confirm the good affinity of [^18F]RM365 toward the human CB2R with a KD value of about 2 nM. […] Furthermore, the measurement signal obtained from the incubation of [^18F]RM365 with the homogenate of rat spleen was in the range of the values obtained for the nonspecific binding of the radioligand toward the preparation of CB2R-transfected CHO cells. We conclude that RM365 binds the rat CB2R with lower affinity than the human CB2R but expect no significant interactions of the radioligand with nonspecific binding sites.[82] […]
The nonspecific binding of the respective radioligand was determined by coincubation with CP55,940 (final concentration 10^–5 M). The normalized values of bound activity (% specific binding) were calculated and plotted vs the logarithm of the concentration of the respective test compound. […]

[1] = parameters: species or system mouse; conditions: female, in vivo
Source text: The biodistribution of [^18F]RM365 was investigated in vivo in mice (n = 4) and rats (n = 2) by dynamic PET imaging studies.
Among others, increasing activity in the duodenum over time and accumulation in the brown adipose tissue (BAT) were observed (Figure S10). In contrast, a slow washout from the salivary glands, muscle, bones, and kidneys could be observed. An initial comparably high TAC peak value with a SUVmean > 4 in the liver, left ventricle (blood), heart wall, and lung followed by a fast washout and a subsequent slower washout phase could be observed. Furthermore, we conclude a mainly hepatic excretion of the activity, as shown by the liver and jejunum TACs in both species and a bladder activity of 0.24 ± 0.19% of injected dose at 60 min in mice (Figures S8 and S10).
In vivo biodistribution studies of [^18F]RM365 were performed in female CD-1 mice (n = 4, 31 ± 3 g) and female Wistar rats (n = 4, 150 ± 11 g). For the uptake studies into the brain, male Wistar rats carrying the stereotactically injected AAV2/7-CaMKII0.4-intron-hCB2R(D80N) (right striatum) and AAV2/7-CaMKII0.4-intron-3flag-eGFP (control/contralateral, left striatum) were used (n = 6; bodyweights were 260 ± 11 g). Data were assessed by dynamic small animal PET (Nanoscan, Mediso, Budapest, Hungary) in 60 min recordings, followed by T1-weighted (GRE, TR/TE = 15.0/2.4 ms, 252/252, FA = 25°) MR imaging with whole-body coils for anatomical correlation and attenuation correction.
The PET scans were performed 3−4 months after the stereotactic injections. […] Nonparametric (semiquantitative) analysis of achieved time–activity curves (TACs) was performed with Microsoft Excel to determine the time to peak, the TAC peak value, and the area under the curve (AUC) [drawing 1] where c (radioactivity) is expressed as the standardized uptake value normalized to the bodyweight in g (SUV). […] Area under the curves (AUCs) and corresponding 95% confidence intervals (CIs, 95%) were calculated with GraphPad Prism (v.8.2) following the assumptions described by Gagnon et al.[39]

## CC1(C)Cc2ccc(C#N)cc2[C@@H]1NC(=O)c1cc2cc([18F])ccc2[nH]1 [[^18F]RM365]
Rat CB2R; rat spleen homogenate, read-out: KD for the rCB2R
  Kd: > 10 µM
Rat CB2R; spleen of a female SPRD rat
  specific binding to rat spleen homogenates, in words: no detectable interaction
[1]; CD-1 (mice), Wistar (rats), mouse
  initial TAC peak value (SUVmean): > 4
[1]; CD-1, mouse
  SUV in spleen: 0.7 ± 0.1
[1]; CD-1, mouse, 60 min
  bladder activity: 0.24 ± 0.19 % of injected dose
